Measured values published in paper PMC5564600 (Oncotarget, 2017).

Columns and labels:
Experiment in all cases: biochemical
Assay type in all cases: binding
panel of 442 kinases [1] = biological target: T1, panel of 442 kinases (Homo sapiens, UniProt P41240); conditions: CSK; for remaining activity at 1 µM: read-out: % of control at 1 µM
T1 construct: purchased Ambit Biosciences (scanMAXX KINOMEscan)

panel of 442 kinases [2] = biological target: T2, panel of 442 kinases (Homo sapiens, UniProt O15197); conditions: EPHB6; for remaining activity at 1 µM: read-out: % of control at 1 µM
T2 construct: purchased Ambit Biosciences (scanMAXX KINOMEscan)
T2 sequence (O15197 32-1021): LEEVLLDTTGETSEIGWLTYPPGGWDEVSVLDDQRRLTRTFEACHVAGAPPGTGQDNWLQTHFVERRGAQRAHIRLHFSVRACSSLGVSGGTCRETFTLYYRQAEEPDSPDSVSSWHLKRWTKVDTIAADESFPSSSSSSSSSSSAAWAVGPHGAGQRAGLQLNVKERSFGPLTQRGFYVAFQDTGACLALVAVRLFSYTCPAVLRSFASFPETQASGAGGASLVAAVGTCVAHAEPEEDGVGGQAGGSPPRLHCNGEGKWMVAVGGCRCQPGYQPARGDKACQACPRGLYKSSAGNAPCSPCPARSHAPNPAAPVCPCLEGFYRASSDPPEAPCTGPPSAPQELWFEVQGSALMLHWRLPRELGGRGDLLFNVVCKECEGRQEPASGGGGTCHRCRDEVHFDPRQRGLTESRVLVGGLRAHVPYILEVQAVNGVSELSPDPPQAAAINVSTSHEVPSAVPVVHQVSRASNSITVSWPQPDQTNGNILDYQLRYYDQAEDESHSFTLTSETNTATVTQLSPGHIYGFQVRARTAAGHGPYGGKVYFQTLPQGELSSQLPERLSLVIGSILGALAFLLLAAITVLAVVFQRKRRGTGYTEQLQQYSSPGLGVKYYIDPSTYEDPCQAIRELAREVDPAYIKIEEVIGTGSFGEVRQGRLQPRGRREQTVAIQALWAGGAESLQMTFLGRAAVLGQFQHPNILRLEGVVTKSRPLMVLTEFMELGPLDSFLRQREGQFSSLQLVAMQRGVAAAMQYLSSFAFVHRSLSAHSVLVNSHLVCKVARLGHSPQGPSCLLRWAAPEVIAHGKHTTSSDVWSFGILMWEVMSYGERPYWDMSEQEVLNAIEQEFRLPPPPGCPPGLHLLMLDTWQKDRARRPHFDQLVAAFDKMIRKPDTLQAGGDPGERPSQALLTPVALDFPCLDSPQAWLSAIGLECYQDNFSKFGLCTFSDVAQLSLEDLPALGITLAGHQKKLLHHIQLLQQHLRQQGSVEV

panel of 442 kinases [3] = biological target: T3, panel of 442 kinases (Homo sapiens, UniProt P35968); conditions: kinase VEGFR2; for remaining activity at 1 µM: read-out: VEGFR2 (% of control at 1 µM)
T3 construct: purchased Ambit Biosciences (scanMAXX KINOMEscan)
T3 sequence (P35968 20-1356): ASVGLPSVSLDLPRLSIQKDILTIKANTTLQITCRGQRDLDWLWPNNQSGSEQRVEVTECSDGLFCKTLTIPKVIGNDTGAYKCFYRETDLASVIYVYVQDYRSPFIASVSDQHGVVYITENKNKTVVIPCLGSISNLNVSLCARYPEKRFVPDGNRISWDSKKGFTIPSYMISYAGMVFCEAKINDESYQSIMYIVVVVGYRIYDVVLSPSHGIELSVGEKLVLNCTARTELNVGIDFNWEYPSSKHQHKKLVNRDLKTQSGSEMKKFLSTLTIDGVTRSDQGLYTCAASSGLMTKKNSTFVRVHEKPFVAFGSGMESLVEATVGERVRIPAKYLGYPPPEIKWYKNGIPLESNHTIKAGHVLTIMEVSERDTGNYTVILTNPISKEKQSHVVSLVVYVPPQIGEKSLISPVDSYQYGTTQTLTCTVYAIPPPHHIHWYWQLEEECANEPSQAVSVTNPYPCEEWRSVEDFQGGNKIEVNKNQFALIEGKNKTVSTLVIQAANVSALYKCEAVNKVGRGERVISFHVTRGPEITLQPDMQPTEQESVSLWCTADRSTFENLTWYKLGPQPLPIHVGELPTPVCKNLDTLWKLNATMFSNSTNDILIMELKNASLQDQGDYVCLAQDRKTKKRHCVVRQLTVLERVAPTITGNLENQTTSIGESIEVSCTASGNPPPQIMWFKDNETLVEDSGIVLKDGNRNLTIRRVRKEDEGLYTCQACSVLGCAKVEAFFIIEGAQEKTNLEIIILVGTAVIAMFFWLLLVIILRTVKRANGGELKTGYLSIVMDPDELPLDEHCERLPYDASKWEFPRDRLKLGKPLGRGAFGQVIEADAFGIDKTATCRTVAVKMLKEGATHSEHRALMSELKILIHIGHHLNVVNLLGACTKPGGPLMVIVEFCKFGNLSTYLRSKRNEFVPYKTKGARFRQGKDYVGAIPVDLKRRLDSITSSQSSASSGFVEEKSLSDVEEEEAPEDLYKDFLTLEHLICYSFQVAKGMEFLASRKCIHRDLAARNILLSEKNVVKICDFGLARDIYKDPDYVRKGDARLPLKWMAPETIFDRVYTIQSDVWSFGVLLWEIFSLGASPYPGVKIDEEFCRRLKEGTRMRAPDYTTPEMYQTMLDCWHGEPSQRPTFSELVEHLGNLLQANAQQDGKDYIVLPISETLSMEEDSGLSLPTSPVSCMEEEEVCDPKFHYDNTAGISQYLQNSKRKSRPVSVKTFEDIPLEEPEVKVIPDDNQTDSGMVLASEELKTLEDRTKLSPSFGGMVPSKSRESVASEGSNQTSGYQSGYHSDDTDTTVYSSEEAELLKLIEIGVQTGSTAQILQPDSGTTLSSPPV

panel of 442 kinases [4] = biological target: T4, panel of 442 kinases (Homo sapiens, UniProt P36888); conditions: FLT3; for remaining activity at 1 µM: read-out: % of control at 1 µM
T4 construct: purchased Ambit Biosciences (scanMAXX KINOMEscan)
T4 sequence (P36888 27-993): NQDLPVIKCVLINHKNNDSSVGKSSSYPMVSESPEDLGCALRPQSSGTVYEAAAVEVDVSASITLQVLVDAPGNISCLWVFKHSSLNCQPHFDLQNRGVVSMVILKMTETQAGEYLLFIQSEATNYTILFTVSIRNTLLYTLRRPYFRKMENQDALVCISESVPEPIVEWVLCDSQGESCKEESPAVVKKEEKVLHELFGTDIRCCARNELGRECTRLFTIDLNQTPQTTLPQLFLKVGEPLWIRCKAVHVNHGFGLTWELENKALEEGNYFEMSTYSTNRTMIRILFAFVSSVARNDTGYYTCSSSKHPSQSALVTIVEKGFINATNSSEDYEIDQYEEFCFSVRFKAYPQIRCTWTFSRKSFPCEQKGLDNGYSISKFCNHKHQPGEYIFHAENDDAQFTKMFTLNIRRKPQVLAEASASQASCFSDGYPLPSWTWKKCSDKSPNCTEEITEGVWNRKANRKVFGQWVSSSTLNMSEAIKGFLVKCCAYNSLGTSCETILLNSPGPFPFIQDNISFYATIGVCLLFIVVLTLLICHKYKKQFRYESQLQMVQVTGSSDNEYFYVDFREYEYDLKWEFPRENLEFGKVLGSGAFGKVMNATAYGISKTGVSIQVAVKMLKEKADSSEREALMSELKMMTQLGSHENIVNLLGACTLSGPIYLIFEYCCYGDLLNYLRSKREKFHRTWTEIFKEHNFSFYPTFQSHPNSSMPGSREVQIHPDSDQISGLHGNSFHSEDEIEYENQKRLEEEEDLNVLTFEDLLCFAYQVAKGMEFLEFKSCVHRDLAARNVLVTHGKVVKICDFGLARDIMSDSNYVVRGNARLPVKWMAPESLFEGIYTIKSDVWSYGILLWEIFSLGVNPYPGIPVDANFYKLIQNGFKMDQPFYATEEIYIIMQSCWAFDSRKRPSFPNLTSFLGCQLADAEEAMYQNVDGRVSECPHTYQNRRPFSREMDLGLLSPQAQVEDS

[5] = 10 µM, read-out: % of control at 10 µM

T1 sequence (P41240 whole entry): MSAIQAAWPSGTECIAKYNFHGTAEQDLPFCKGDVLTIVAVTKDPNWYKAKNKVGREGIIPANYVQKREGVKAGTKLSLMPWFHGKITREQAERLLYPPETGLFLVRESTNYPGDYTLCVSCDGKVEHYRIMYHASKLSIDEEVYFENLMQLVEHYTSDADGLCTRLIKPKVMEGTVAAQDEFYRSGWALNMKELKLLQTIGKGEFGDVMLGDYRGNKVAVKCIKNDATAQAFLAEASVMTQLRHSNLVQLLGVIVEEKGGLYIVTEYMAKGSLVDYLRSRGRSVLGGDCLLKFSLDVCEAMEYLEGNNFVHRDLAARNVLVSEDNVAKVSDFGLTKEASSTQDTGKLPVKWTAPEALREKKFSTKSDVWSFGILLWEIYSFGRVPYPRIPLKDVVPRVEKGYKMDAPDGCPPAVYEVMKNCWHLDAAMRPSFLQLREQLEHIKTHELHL

`Nc1cc(C(F)(F)F)c(-c2cc(N3CCOCC3)nc(N3CCOCC3)n2)cn1` [Buparlisib] gave a remaining activity at 1 µM (panel of 442 kinases [1]) of 94%, a remaining activity at 10 µM (panel of 442 kinases [1]; [5]) of 100% and a remaining activity at 1 µM (panel of 442 kinases [2]) of 76%. It also gave a remaining activity at 10 µM (panel of 442 kinases [2]; [5]) of 89%, a remaining activity at 1 µM (panel of 442 kinases [3]) of 87% and a remaining activity at 10 µM (panel of 442 kinases [3]; 10 µM, read-out: VEGFR2 (% of control at 10 µM)) of 100%. It also gave a remaining activity at 1 µM (panel of 442 kinases [4]) of 90% and a remaining activity at 10 µM (panel of 442 kinases [4]; [5]) of 81%.

Compound `Cn1c(=O)n(-c2ccc(C(C)(C)C#N)cc2)c2c3cc(-c4cnc5ccccc5c4)ccc3ncc21` [Dactolisib, 2-methyl-2-[4-(3-methyl-2-oxo-8-quinolin-3-yl-2,3-dihydroimidazo[4,5-c]quinolin-1-yl)-phenyl] propionitrile] has a remaining activity at 1 µM (panel of 442 kinases [1]) of 81%, a remaining activity at 1 µM (panel of 442 kinases [2]) of 100% and a remaining activity at 1 µM (panel of 442 kinases [3]) of 100%. It also gave a remaining activity at 1 µM (panel of 442 kinases [4]) of 67%.

Work on `COc1ncc(-c2ccc3nccc(-c4ccnnc4)c3c2)cc1NS(=O)(=O)c1ccc(F)cc1F` [Omipalisib] yielded a remaining activity at 1 µM (panel of 442 kinases [1]) of 98%, a remaining activity at 1 µM (panel of 442 kinases [2]) of 57% and a remaining activity at 1 µM (panel of 442 kinases [3]) of 78%. The remaining activity at 1 µM (panel of 442 kinases [4]) was 100%.

`FC(F)c1nc2ccccc2n1-c1nc(N2CCOCC2)nc(N2CCOCC2)n1` [ZSTK474, 2-(difluoromethyl)-1-[4,6-di(4-morpholinyl)-1,3,5-triazin-2-yl]-1H-benzimidazole] showed a remaining activity at 1 µM (panel of 442 kinases [1]) of 89%, a remaining activity at 1 µM (panel of 442 kinases [2]) of 100% and a remaining activity at 1 µM (panel of 442 kinases [3]) of 100%. It also gave a remaining activity at 1 µM (panel of 442 kinases [4]) of 100%.
